{
  "source": "patent US20070265271A1",
  "about": "“Novel Diazabicyclic Aryl Derivatives as Cholinergy Ligands” (priority 2004, published 2007)",
  "data": [
    {"units": {"melting point": "°C"}, "values": [
      {"smiles": "CN1C2CCC1CN(C(=O)c1ccc(-c3cccc(C(F)(F)F)c3)o1)C2.O=C(O)/C=C/C(=O)O", "melting point": "108.7 to 109.4"},
      {"smiles": "CN1C2CCC1CN(C(=O)c1cc3ccccc3o1)C2.O=C(O)/C=C/C(=O)O", "melting point": "150 to 155"},
      {"smiles": "CN1C2CCC1CN(C(=O)c1ccc(-c3ccccc3)cc1)C2.O=C(O)/C=C/C(=O)O", "melting point": "197 to 207"},
      {"smiles": "CC(=O)Nc1cccc(-c2ccc(C(=O)N3CC4CCC(C3)N4C)o2)c1.O=C(O)/C=C/C(=O)O", "melting point": "189 to 193"}
    ]}
  ]
}
